Reference: patent publication US20170008888A1 (KYORIN PHARMACEUTICAL CO., LTD., priority 2014, published 2017)
Like-named read-outs stand apart in the source and are kept apart here.

Experiments:
[1] = target: T1, BRD4 bromodomain domain I [BRD4(1)] (Homo sapiens, UniProt O60885); assay: BRD4 bromodomain domain 1 inhibition assay (TR-FRET); type: binding; settings: for inhibition at 10 µM: screening concentration 10 μM
T1 construct: BRD4 bromodomain domain I [BRD4(1)]; purchased Cayman Chemicals
How it was run: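 0.5% DMSO, in triplicate, using Cayman BRD4(1) TR-FRET protocol with slight modification. 670/620 nm ratio normalized to 10 μM JQ1, with DMSO control set as 0% inhibition.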

[2] = target: T2, recombinant human ERK5 catalytic domain (Homo sapiens, UniProt Q13164); assay: Recombinant human ERK5 radiometric (HotSpot) assay; type: biochemical
T2 construct: Recombinant human ERK5 catalytic domain radiometric assays; purchased Reaction Biology, Corp (Malvern, Pa.), which ran the assay as a service
Description: In this example, potency of the compounds in recombinant human ERK5 was assayed.
Recombinant human ERK5 catalytic domain radiometric assays were performed by Reaction Biology, Corp (Malvern, Pa.). The HotSpot radiometric assay is based on conventional filter-binding assays (Nature Biotechnology (2011) 29: 1039-1045). Compounds were tested at 20 μM down by ⅓ in a 10 point serial dilution series. Briefly, [γ-33P]-ATP was used as the tracer along with 10 μM cold ATP to label ERK5 in the presence of 20 μM myelin basic protein substrate.

human PBMCs = assay: Human PBMC TNF-α response to endotoxin (ELISA); type: cell-based; settings: 0.1 μg/ml LPS 16 h, read-out: EC50 for the inhibition of the human PBMC TNF-α response to endotoxin, ave. ± S.D.
How it was run: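 PBMCs at 2e6 cells/ml in RPMI 1640 with 10% charcoal-dextran-treated FBS were pre-treated 1 h at 37 °C with compound (4-point 1:5 dilution from 10 μM). Stimulation with 0.1 μg/ml E. coli 0111:B4 LPS for 16 h; TNF-α measured by ELISA (A450) in 25-fold diluted supernatant.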

[3] = 10 μM ATP, 20 μM myelin basic protein substrate, read-out: rhERK5 IC50

T2 sequence (Q13164 55-347 limits assumed): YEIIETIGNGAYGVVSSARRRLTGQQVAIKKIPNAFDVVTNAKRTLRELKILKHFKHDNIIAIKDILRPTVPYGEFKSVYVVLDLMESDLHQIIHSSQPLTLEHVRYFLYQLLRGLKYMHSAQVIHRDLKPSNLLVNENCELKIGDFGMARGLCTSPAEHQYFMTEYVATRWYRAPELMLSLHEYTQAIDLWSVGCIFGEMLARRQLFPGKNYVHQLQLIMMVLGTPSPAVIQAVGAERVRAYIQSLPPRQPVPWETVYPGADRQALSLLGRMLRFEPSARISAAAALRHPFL

| Structure (SMILES) | IC50 [1] [nM] | IC50 [2, 3] [nM] | EC50 (human PBMCs) [nM] | inhibition at 10 µM [1] [%] | IC50 [2] [nM] |
| --- | --- | --- | --- | --- | --- |
| CCOc1cc(C(=O)N2CCN(C3CCN(C)CC3)CC2)ccc1Nc1cc2c(cn1)N(C)C(=O)c1cccc(Cl)c1O2 [Compound T104] | 2000 to 5000 | 50 to 200 | 510 ± 240 | – | – |
| CN1C(=O)c2cccc(Cl)c2N(C)c2cc(N[C@H]3CC[C@H](O)CC3)ncc21 [Compound T120] | > 5000 | > 200 | 2390 ± 2110 | – | – |
| CCOC1CCCC[C@H]1Nc1cc2c(cn1)N(C)C(=O)c1ccccc1N2C (stereo partly drawn) [Compound T113] | > 5000 | > 200 | 2950 ± 2170 | – | – |
| CCOc1cc(C(=O)N2CCN(C3CCN(C)CC3)CC2)ccc1Nc1cc2c(cn1)N(C)C(=O)c1ccccc1S2 [Compound T99] | > 5000 | 50 to 200 | 3220 ± 2750 | – | – |
| CN1C(=O)c2ccccc2N(C)c2cc(N[C@H]3CC[C@H](NS(N)(=O)=O)CC3)ncc21 [Compound T128] | 2000 to 5000 | 50 to 200 | 2510 ± 1470 | – | – |
| CN1C(=O)c2ccccc2N(C)c2cc(N[C@H]3CC[C@@H](O)CC3)ncc21 [Compound T114] | > 5000 | > 200 | 3070 ± 3350 | – | – |
| CCOc1cc(C(C)N2CC[C@@H](O)C2)ccc1Nc1cc2c(cn1)N(C)C(=O)c1ccccc1N2C (stereo partly drawn) [Compound T27] | – | < 20 | 370 | > 85 | – |
| CCOc1cc(C(=O)N2CCN(C3CCN(C)CC3)CC2)ccc1Nc1cc2c(cn1)N(C)C(=O)c1cccc(Cl)c1N2C [Compound T126] | > 5000 | 50 to 200 | 970 ± 830 | – | – |
| CN1C(=O)c2cccc(Cl)c2Oc2cc(N[C@H]3CC[C@H](O)CC3)ncc21 [Compound T94] | > 5000 | > 200 | 1170 ± 1120 | – | – |
| CCOc1cc(C(=O)N[C@H]2CC[C@H](O)CC2)ccc1Nc1cc2c(cn1)N(C)C(=O)c1ccccc1O2 [Compound T89] | > 5000 | 50 to 200 | 1720 ± 1510 | – | – |
| CCOc1cc(C(=O)N2CCN[C@@H](C)C2)ccc1Nc1cc2c(cn1)N(C)C(=O)c1ccccc1N2C [Compound T25] | – | < 20 | 480 | > 85 | – |
| CN1C(=O)c2ccccc2Oc2cc(N[C@H]3CC[C@H](O)CC3)ncc21 [Compound T117] | > 5000 | > 200 | 2700 ± 2720 | – | – |
| CCOc1cc(C(=O)N2CCN(C3CCN(C)CC3)CC2)ccc1Nc1cc2c(cn1)N(C)C(=O)c1c(F)cccc1N2C [Compound T124] | < 2000 | 20 to 50 | 310 ± 220 | – | – |
| CN1C(=O)c2cccc(F)c2N(C)c2cc(N[C@H]3CC[C@H](O)CC3)ncc21 [Compound T118] | > 5000 | > 200 | 2430 ± 1780 | – | – |
| CCOc1cc(C(C)N2CCCC2)ccc1Nc1cc2c(cn1)N(C)C(=O)c1ccccc1N2C (stereo not drawn) [Compound T26] | – | < 20 | 410 | > 85 | – |
| C[C@H]1C[C@H](Nc2cc3c(cn2)N(C)C(=O)c2ccccc2N3C)CC[C@H]1O [Compound T137] | > 5000 | 50 to 200 | 1110 ± 990 | – | – |
| CCOc1cc(C(=O)N2CCN(C3CCN(C)CC3)CC2)ccc1Nc1cc2c(cn1)N(C)C(=O)c1cccc(OC)c1O2 [Compound T105] | < 2000 | 50 to 200 | 430 ± 280 | – | – |
| CCOc1cc(C(=O)N2CCN(C3CCN(C)CC3)CC2)ccc1Nc1cc2c(cn1)N(C)C(=O)c1cccc(F)c1N2C [Compound T125] | 2000 to 5000 | 50 to 200 | 790 ± 200 | – | – |
| CN1C(=O)c2ccccc2N(C)c2cc(N[C@H]3CC[C@H](NS(=O)(=O)C4CC4)CC3)ncc21 [Compound T129] | 2000 to 5000 | 50 to 200 | 1790 ± 1440 | – | – |
| CCO[C@H]1CC[C@H](Nc2cc3c(cn2)N(C)C(=O)c2ccccc2N3C)CC1 [Compound T110] | > 5000 | 50 to 200 | 2740 ± 1870 | – | – |
| COc1cccc2c1N(C)c1cc(N[C@H]3CC[C@H](O)CC3)ncc1N(C)C2=O [Compound T122] | > 5000 | 50 to 200 | 3490 ± 3000 | – | – |

| Structure (SMILES) | IC50 [1] [nM] | IC50 [2, 3] [nM] | EC50 (human PBMCs) [nM] | inhibition at 10 µM [1] [%] | IC50 [2] [nM] |
| --- | --- | --- | --- | --- | --- |
| CCOc1cc(C(=O)N2CCN(C3CCN(C)CC3)CC2)ccc1Nc1cc2c(cn1)N(C)C(=O)c1cccc(F)c1O2 [Compound T103] | > 5000 | 50 to 200 | 1230 ± 1310 | – | – |
| CN1C(=O)c2ccccc2Sc2cc(N[C@H]3CC[C@H](O)CC3)ncc21 [Compound T116] | > 5000 | > 200 | 1660 ± 1530 | – | – |
| CCOc1cc(C(=O)N2CCC(=O)CC2)ccc1Nc1cc2c(cn1)N(C)C(=O)c1ccccc1N2C [Compound T28] | – | – | 480 | – | < 20 |
| Cc1cccc2c1Oc1cc(N[C@H]3CC[C@H](O)CC3)ncc1N(C)C2=O [Compound T96] | 2000 to 5000 | > 200 | 1100 ± 860 | – | – |
| CCOc1cc(C(=O)N2CCN(C3CCN(C)CC3)CC2)ccc1Nc1cc2c(cn1)N(C)C(=O)c1c(F)ccc(F)c1O2 [Compound T107] | < 2000 | 20 to 50 | 300 ± 250 | – | – |
| CCOc1cc(C(=O)N2CC[C@@H](N(C)CCO)C2)ccc1Nc1cc2c(cn1)N(C)C(=O)c1ccccc1N2C [Compound T55] | – | 20 to 50 | 840 | – | – |
| CCOc1cc(C(=O)N2CCN(C3CCN(C)CC3)CC2)ccc1Nc1cc2c(cn1)N(C)C(=O)c1cccc(C)c1O2 [Compound T106] | < 2000 | 50 to 200 | 270 ± 170 | – | – |
| CCCOc1cc(C(=O)N2CCC(N3CCN(C)CC3)CC2)ccc1Nc1cc2c(cn1)N(C)C(=O)c1ccccc1N2C [Compound T41] | – | 20 to 50 | 370 | – | – |
| CCOc1cc(C(=O)N2CCC(N3CCN[C@H](C)C3)CC2)ccc1Nc1cc2c(cn1)N(C)C(=O)c1ccccc1N2C [Compound T51] | – | 20 to 50 | 740 | – | – |
| CN1C(=O)c2ccccc2N(C)c2cc(Nc3ccc(C(=O)N4CCC[C@H](O)C4)cc3OCCF)ncc21 [Compound T32] | – | 50 to 200 | 870 | – | – |
| CCOc1cc(C(=O)N2CCN[C@H](C)C2)ccc1Nc1cc2c(cn1)N(C)C(=O)c1ccccc1N2C [Compound T29] | – | < 20 | 350 | > 85 | – |
| CN1C(=O)c2c(F)cccc2N(C)c2cc(N[C@H]3CC[C@H](O)CC3)ncc21 [Compound T119] | < 2000 | 50 to 200 | 980 ± 930 | – | – |
| CCOc1cc(C(=O)N2CCC[C@H](N3CCCC3)C2)ccc1Nc1cc2c(cn1)N(C)C(=O)c1ccccc1N2C [Compound T53] | – | 50 to 200 | 890 | – | – |
| CCOc1cc(C(=O)N2CC[C@@H](N3CCOCC3)C2)ccc1Nc1cc2c(cn1)N(C)C(=O)c1ccccc1N2C [Compound T19] | – | 50 to 200 | 690 | – | – |
| CN1C(=O)c2cccc(F)c2Oc2cc(N[C@H]3CC[C@H](O)CC3)ncc21 [Compound T93] | > 5000 | > 200 | 1720 ± 1340 | – | – |
| CN1C(=O)c2ccccc2N(C)c2cc(N[C@H]3CC[C@H](N4CCCS4(=O)=O)CC3)ncc21 [Compound T136] | > 5000 | 50 to 200 | 2030 ± 1910 | – | – |
| CCOc1cc(C(=O)N2CCC(N3CCN[C@@H](C)C3)CC2)ccc1Nc1cc2c(cn1)N(C)C(=O)c1ccccc1N2C [Compound T52] | – | 20 to 50 | 1080 | – | – |
| CCOc1cc(C(=O)N2CCC[C@H](OP(=O)(O)O)C2)ccc1Nc1cc2c(cn1)N(C)C(=O)c1ccccc1N2C [Compound T43] | – | 20 to 50 | > 10000 | – | – |
| CCOc1cc(C(=O)N2CCN(CCC#N)CC2)ccc1Nc1cc2c(cn1)N(C)C(=O)c1ccccc1N2C [Compound T17] | – | 20 to 50 | 900 | – | – |
| CCOc1cc(C(=O)N2CCN(c3ccccn3)CC2)ccc1Nc1cc2c(cn1)N(C)C(=O)c1ccccc1N2C [Compound T35] | – | 20 to 50 | 660 | – | – |
| CCCOc1cc(C(=O)N2CCCNCC2)ccc1Nc1cc2c(cn1)N(C)C(=O)c1ccccc1N2C [Compound T40] | – | 20 to 50 | 490 | – | – |
